Like-named read-outs stand apart in the source and are kept apart here.
Legend:
[1] = tested on: oral mucositis induced by acute radiation, left buccal cheek pouch
Experimental: Twenty-four (24) male Syrian Golden Hamsters were used in the study. Mucositis was induced by giving an acute radiation dose of 40 Gy directed to the left buccal cheek pouch on Day 0. Mucositis was evaluated clinically starting on Day 6, and continuing on alternate days until Day 28.
Mucositis was scored visually by comparison to a validated photographic scale, ranging from 0 for normal, to 5 for severe ulceration (clinical scoring). In descriptive terms, this scale is defined as described in Table 7 below: […]
A mucositis score of 3 or greater indicates ulcerative mucositis, a clinically significant threshold.
Statistical significance of observed differences was calculated using chi-squared analysis.
An analysis of the severity of mucositis was performed using the Mann-Whitney rank sum analysis to compare the visual mucositis scores for Groups 2 and 3 to the vehicle control group (Group 1) on each day of the analysis. In this analysis, 2 consecutive days of significant reduction in the mucositis score are generally required before it is regarded as clinically meaningful.
The significance of group differences observed in daily mucositis scores was determined using the Mann-Whitney rank sum test. This nonparametric statistic is appropriate for the visual mucositis scoring scale. The p-values for each calculation are shown. “x” denotes significant difference in mucositis scores. “y” denotes increase in comparison to vehicle Group […], “z” denotes decrease.
“y” denotes an increase in comparison to vehicle Group, “z” denotes decrease (improvement).

[2] = hamster, Days -3 to 28, topical 1 mg/dose BID
[3] = tested on: primary human gingival epithelial cells (HGEPp); conditions: pretreated 24 h at 50 to 800 ug/ml, then 0.3 mM H2O2 for 4 h; P<0.05 versus PC
Experimental: (§1) Pooled primary HGEPps were propagated in CnT-Prime epithelial culture medium provided by CellnTec on 100 mm petri dishes coated with 30 mg/ml Type I rat tail collagen (BD Biosciences) diluted in Dulbecco's phosphate-buffered saline (DPBS). […] The cells were harvested when they reached 70-90% confluency as observed by light microscopy. For routine cultivation, the medium was changed every 3 days. For both the cell viability and ROS assays, the cells from passages 3-7 were seeded at 5×10 3, 2.5×10 4, 5×10^4 cells/cm 2 density to grow cell monolayers in 24-well flat-bottomed tissue culture plates and acclimated overnight at 37° C. […]
(§2) Once the HGEPp cells were cultured and ready on the microplate, the media was removed from all the wells and discarded. […] Removed the plate cover and measured the absorbance of the wells, including the blanks at 570 nm. • 8. Determined the average values from triplicate readings after subtracting the average value for the blanks.
(§3) HGEPp cells were exposed to different concentrations of H2O2 for 4 h to examine H2O2-induced oxidative stress. The cells were exposed to 0-0.6 mM H2O2 for 4 h and cell viability was evaluated using the TACS MTT Cell Proliferation Assay Kit. The percentage of cell survival was determined using the ratio of the optical density (OD) of the test sample to the OD of the control×100%. […]

[4] = tested on: primary human gingival epithelial cells (HGEPp); test: cells; conditions: Epithelial cell, 4 h, read-out: IC50 of H2O2 in HGEPp cells
Experimental: as §1, §2, §3

[5] = tested on: reactive oxygen species within HGEPp cells; conditions: 0.3 mM H2O2 for 4 h
Source text: 2. measure the effect of recrystallized oltipraz and formulated oltipraz on hydroxyl, peroxyl and other reactive oxygen species within HGEPp cells, using Cell Biolabs' OxiSelect™ Intracellular ROS Assay Kit. This assay employs the cell-permeable fluorogenic probe 2′,7′-dichlorodihydrofluorescin diacetate (DCFH-DA) which diffuses into cells and is deacetylated by cellular esterases to a nonfluorescent DCFH which is then rapidly oxidized to highly fluorescent 2′,7′-dichlorodihydrofluorescein (DCF) by ROS.
Pooled primary HGEPps were propagated in CnT-Prime epithelial culture medium provided by CellnTec on 100 mm petri dishes coated with 30 mg/ml Type I rat tail collagen (BD Biosciences) diluted in Dulbecco's phosphate-buffered saline (DPBS). […] The cells were harvested when they reached 70-90% confluency as observed by light microscopy. For routine cultivation, the medium was changed every 3 days. […]
Prepared and mixed all reagents thoroughly before use. […] Once the HGEPp cells were cultured and ready on a microplate, the media was removed from all the wells and discarded. […] Fluorescence was read on a Fluorescence Plate Reader after 1 hour. […] Transferred 150 μL of the mixture to a fresh 24-well plate for fluorescence measurements at 530 nm. […]
Intracellular ROS was measured using a Spectramax M3 microplate reader.

Row | Structure (SMILES) | Percent of Animals with Ulceration (Score ≥ 3) ([1]; Day 6) [%] | Percent of Animals with Ulceration (Score ≥ 3) ([1]; Day 8) [%] | Percent of Animals with Ulceration (Score ≥ 3) ([1]; Day 10) [z Percent] | Percent of Animals with Ulceration (Score ≥ 3) ([1]; Day 12) [y Percent] | Percent of Animals with Ulceration (Score ≥ 3) ([1]; Day 14) [%] | Percent of Animals with Ulceration (Score ≥ 3) ([1]; Day 16) [%] | Percent of Animals with Ulceration (Score ≥ 3) ([1]; Day 18) [%] | Percent of Animals with Ulceration (Score ≥ 3) ([1]; Day 20) [%] | Percent of Animals with Ulceration (Score ≥ 3) ([1]; Day 22) [%] | Percent of Animals with Ulceration (Score ≥ 3) ([1]; Day 24) [z Percent] | Percent of Animals with Ulceration (Score ≥ 3) ([1]; Day 26) [z Percent] | Percent of Animals with Ulceration (Score ≥ 3) ([1]; Day 28) [z Percent] | mean daily percent body weight change (rate of weight gain) [2] | effect on H2O2-induced decrease in HGEPp survival (MTT) [3] | IC50 [4] [µM] | ROS levels compared to normal control cells (100%) [5] [%]
1 | Cc1c(-c2cnccn2)ssc1=S [Neat oltipraz, 4-methyl-5-(pyrazin-2-yl)-3H-1,2-dithiole-3-thione] | 0.0 | 0.0 | 0.0 | 50.0 | 100.0 | 100.0 | 100.0 | 100.0 | 100.0 | 50.0 | 25.0 | 25.0 | gained weight at a slower rate than those administered placebo | promoted cell proliferation and reduced H2O2-induced decrease in HGEPp survival | – | –
2 | OO [Sample H2O2, hydrogen peroxide] | – | – | – | – | – | – | – | – | – | – | – | – | – | – | 300 | 128

Source: patent publication US11426403B2 (ST IP Holding AG, priority 2016, dated 2022)
